Reference: patent US6451837B1, “Neuroprotective effects of mitogen-activated protein kinase (MAPK) cascade inhibitors” (priority 1999, dated 2002)

Assays:
Type in all cases: cell-based, Wistar rat
[1] = tested on: cultured hippocampal tissue explants; assay: NMDA-induced cell death in cultured hippocampal slices, propidium iodide fluorescence; settings: for neuroprotection to nerve cells, as described in Example 1: PD098059 about 30-90 μM, apigenin about 25-100 μM; for number of dead cells lower than in explants treated with NMDA alone: staurosporine 0.2 μM; for reduction of NMDA toxicity: treated 2 hours prior to NMDA 50 μM, PD098059 30-90 μM, wortmannin 1-5 μM, FIG. 2-4
[2] = tested on: cultured hippocampal tissue explants; assay: Cell death induced by transfer to fresh culture medium in cultured hippocampal slices, propidium iodide fluorescence
Experimental: (§1) Seven day old Wistar rat pups were anaesthetized with fluothane, decapitated and transverse hippocampal slices (400 microns) were cultured for 12 days on 6-well tissue culture plates containing 1 ml of culture medium. The medium composition was 50% minimal essential medium (MEM), 25% horse serum, 25% Earl's balanced salt solution with D-glucose and HEPES, penicillin G and streptomycin sulfate, 5000 units/ml and 5 μg/ml respectively and the pH, 7.15. Slices were cultured at 36.5° C., 100% humidity, 95% air and 5% CO2 atmosphere, and were fed twice weekly by 50% medium exchange. All drugs were dissolved in water or dimethylsulfoxide (DMSO, final concentration was 0.1%) to make stock solutions. Controls for DMSO effects were performed where appropriate. To apply a drug, the stock solution was dissolved in 1 ml of fresh culture medium to make a desired concentration. Then, hippocampal slices were transferred for a specified time interval to the fresh medium containing the drug. To terminate the drug action, slices were again transferred to a fresh medium containing 2 mg/ml propidium iodide (PI). The medium temperature was kept at 36° C. during the transfers. Since the change of medium induced nerve cell death, control experiments were performed by transferring hippocampal slices an equal number of times into the fresh medium with the intervals between transfers equal to the time interval that slices were exposed to the drug. In a separate series of experiments the medium replacement was performed twice with a 30 minute interval in order to induce cell death. Cell death was measured as the PI fluorescence intensity by using MRC-600 Laser Scanning Confocal Imaging System. PI was added to the medium 30 minutes prior to taking control images (immediately before the drug treatment). […] Each experiment was performed at least in triplicate, on 5-6 slices each time and data expressed as an average of all experiments. Cell death index was derived from PI fluorescence intensity normalized to the intensity values obtained after the 48 hour exposure of slices to an ambient temperature of 4° C. […]

[3] = tested on: cultured hippocampal tissue explants; assay: Cell death induced by amyloid β-protein fragment 25-35 in cultured hippocampal slices; settings: 30-90 μM for 2 hours prior to the addition of toxic peptides
Experimental: as §1, with “To terminate the drug action, slices were again transferred to a fresh medium containing 2 mg/ml propidium iodide (PI). The medium temperature was kept at 36° C. during the transfers. Since the change of medium induced nerve cell death, control experiments were performed by transferring hippocampal slices an equal number of times into the fresh medium with the intervals between transfers equal to the time interval that slices were exposed to the drug. In a separate series of experiments the medium replacement was performed twice with a 30 minute interval in order to induce cell death.” left out, “System.” for “System. PI was added to the medium 30 minutes prior to taking control images (immediately before the drug treatment).”

[4] = 24 hours after NMDA exposure, FIG. 5

O=c1cc(-c2ccc(O)cc2)oc2cc(O)cc(O)c12 [apigenin]
neuroprotection to nerve cells, as described in Example 1 [1]: effective in providing neuroprotection

NC(CCCP(=O)(O)O)C(=O)O (stereo not shown) [AP5]
block of the increase in cell death caused by transfers to fresh medium ([2]; AP5 20 μM, CA1-CA4 and dentate gyrus): not blocked

CN[C@H](CC(=O)O)C(=O)O [NMDA, N-methyl-D-aspartate]
cells killed, relative to 4° C. exposure taken as 100% of cells ([1]; 50 μM NMDA, 30 minutes exposure): approximately 30% | cell death in the dentate gyrus ([1]; NMDA 2.5-500 μM): did not induce concentration-dependent increase in cell death | cell death in the CA1-CA4 region of the hippocampus ([1]; NMDA 2.5-500 μM for 30 minutes): marked cell death

CN[C@@H]1C[C@H]2O[C@@](C)([C@@H]1OC)n1c3ccccc3c3c4c(c5c6ccccc6n2c5c31)C(=O)NC4 [staurosporine]
number of dead cells lower than in explants treated with NMDA alone [1, 4]: 45% | reduction of NMDA toxicity [1]: somewhat effective

COc1cccc(-c2cc(=O)c3ccccc3o2)c1N [PD098059, 2-(2′-amino-3′methoxyphenyl)-oxanaphthalen-4-one]
number of dead cells lower than in explants treated with staurosporine [1, 4]: 33% | number of dead cells lower than in explants treated with NMDA alone [1, 4]: 95% | neuroprotection to nerve cells, as described in Example 1 [1]: effective in providing neuroprotection | reduction of NMDA-induced cell death ([1]; applied immediately after NMDA): effective in reducing NMDA-induced cell death | reduction of NMDA toxicity [1]: significantly reduced NMDA toxicity | cell death after exposure to fresh medium at 24 hours ([2]; 24 hours, PD098059 30-90 μM for 2 hours prior, wortmannin 1 μM, FIG. 6): significantly reduced cell death | cell death after exposure to fresh medium at 72 hours ([2]; 72 hours, PD098059 30-90 μM for 2 hours prior, wortmannin 1 μM, FIG. 6): significantly reduced cell death | cell death induced by toxic amyloid peptides [3]: prevented cell death

N[C@H](CCCP(=O)(O)O)C(=O)O [d-APV]
block of NMDA-induced cell death ([1]; slices exposed to NMDA for 30 minutes): could be blocked
